Experiments:
ISC-enriched organoids [1] = experiment: Primary screen, 384-well 2.5-D organoid differentiation (ENR+CD, 6 days): basal lysozyme secretion (LYZ.NS); type: cell-based, murine; details: for Dose.FC.LYZ.NS: FC vs plate median; for Z.LYZ.NS: standard z score of FC; for Dose.FC.LYZ.NS (log 2 fold change) / Dose.FC.LYZ.NS (log 2 fold change, basal lysozyme secretion): vs plate median; for SSMD.LYZ.NS: strictly standardized mean difference
Text: (§1) High-throughput screening.

ISC-enriched organoids [2] = experiment: Primary screen, 384-well 2.5-D organoid differentiation (ENR+CD, 6 days, Target Selective Inhibitor Library, vs whole-plate median): ATP (CellTiter-Glo 3D, CTG); details: for Dose.FC.CTG: FC vs plate median; for Dose.FC.CTG (log 2 fold change) / Dose.FC.CTG (log 2 fold change, ATP): vs plate median; for SSMD.CTG: strictly standardized mean difference
ISC-enriched organoids [3] = experiment: Primary screen, 384-well 2.5-D organoid differentiation (ENR+CD, 6 days): carbachol-induced lysozyme secretion (LYZ.S); type: cell-based, murine; details: for Dose.FC.LYZ.S / Dose.FC.LYZ.S (log 2 fold change) / Z.LYZ.S / SSMD.LYZ.S: primary screen; for Dose.FC.LYZ.S: FC vs plate median; for Dose.FC.LYZ.S (log 2 fold change) / Dose.FC.LYZ.S (log 2 fold change, carbachol-induced lysozyme secretion): vs plate median; for Z.LYZ.S: standard z score; for SSMD.LYZ.S: strictly standardized mean difference
Text: as §1

[4] = primary screen, 1st of the 4 dose lines of the treatment (dose not given)
[5] = primary screen, 2nd of the 4 dose lines of the treatment (dose not given)
[6] = primary screen, 3rd of the 4 dose lines of the treatment (dose not given)
[7] = primary screen, 4th of the 4 dose lines of the treatment (dose not given)
[8] = 1st of the 4 dose lines of the treatment (dose not given)
[9] = 2nd of the 4 dose lines of the treatment (dose not given)
[10] = 3rd of the 4 dose lines of the treatment (dose not given)
[11] = 4th of the 4 dose lines of the treatment (dose not given)

## CC(=O)O[C@H]1C[C@@H]2CC[C@@H]3[C@H](CC[C@@]4(C)[C@H]3C[C@H]([N+]3(C)CCCCC3)[C@@H]4OC(C)=O)[C@@]2(C)C[C@@H]1[N+]1(C)CCCCC1.[Br-].[Br-] [Pancuronium dibromide]
ISC-enriched organoids [1]; Dose 0.08 uM, primary screen
  Dose.FC.LYZ.NS: 0.128 log 2 fold change
ISC-enriched organoids [1]; Dose 0.08 uM
  Z.LYZ.NS: 1.118
ISC-enriched organoids [1]; Dose 0.40 uM, primary screen
  Dose.FC.LYZ.NS: 0.047 log 2 fold change
ISC-enriched organoids [1]; Dose 0.40 uM
  Z.LYZ.NS: 0.406
ISC-enriched organoids [1]; Dose 2.00 uM, primary screen
  Dose.FC.LYZ.NS: 0.093 log 2 fold change
ISC-enriched organoids [1]; Dose 2.00 uM
  Z.LYZ.NS: 0.806
ISC-enriched organoids [1]; Dose 10.00 uM, primary screen
  Dose.FC.LYZ.NS: 0.035 log 2 fold change
ISC-enriched organoids [1]; Dose 10.00 uM
  Z.LYZ.NS: 0.302
ISC-enriched organoids [2]; Dose 0.08 uM, primary screen
  Dose.FC.CTG: 0.217 log 2 fold change
ISC-enriched organoids [2]; Dose 0.08 uM, standard z score of FC
  Z.CTG: 0.519
ISC-enriched organoids [2]; Dose 0.40 uM, primary screen
  Dose.FC.CTG: 0.226 log 2 fold change
ISC-enriched organoids [2]; Dose 0.40 uM, standard z score of FC
  Z.CTG: 0.541
ISC-enriched organoids [2]; Dose 2.00 uM, primary screen
  Dose.FC.CTG: −0.012 log 2 fold change
ISC-enriched organoids [2]; Dose 2.00 uM, standard z score of FC
  Z.CTG: −0.029
ISC-enriched organoids [2]; Dose 10.00 uM, primary screen
  Dose.FC.CTG: 0.062 log 2 fold change
ISC-enriched organoids [2]; Dose 10.00 uM, standard z score of FC
  Z.CTG: 0.148
ISC-enriched organoids [3]; Dose 0.08 uM
  Dose.FC.LYZ.S: 0.213 log 2 fold change
ISC-enriched organoids [3]; Dose 0.40 uM
  Dose.FC.LYZ.S: 0.094 log 2 fold change
ISC-enriched organoids [3]; Dose 2.00 uM
  Dose.FC.LYZ.S: 0.099 log 2 fold change
ISC-enriched organoids [3]; Dose 10.00 uM
  Dose.FC.LYZ.S: 0.004 log 2 fold change

## Nc1ccc(C(=O)[O-])c(O)c1.[Na+] [Sodium 4-Aminosalicylate]
ISC-enriched organoids [1]; Dose 0.08 uM, primary screen
  Z.LYZ.NS (standard z score): 0.695
  Dose.FC.LYZ.NS (log 2 fold change): 0.080
ISC-enriched organoids [1]; Dose 0.40 uM, primary screen
  Z.LYZ.NS (standard z score): 0.354
  Dose.FC.LYZ.NS (log 2 fold change): 0.041
ISC-enriched organoids [1]; Dose 2.00 uM, primary screen
  Z.LYZ.NS (standard z score): 1.354
  Dose.FC.LYZ.NS (log 2 fold change): 0.156
ISC-enriched organoids [1]; Dose 10.00 uM, primary screen
  Z.LYZ.NS (standard z score): 0.796
  Dose.FC.LYZ.NS (log 2 fold change): 0.091
ISC-enriched organoids [2]; Dose 0.08 uM, primary screen
  Z.CTG (standard z score): 0.283
  Dose.FC.CTG (log 2 fold change): 0.119
ISC-enriched organoids [2]; Dose 0.40 uM, primary screen
  Z.CTG (standard z score): 0.488
  Dose.FC.CTG (log 2 fold change): 0.204
ISC-enriched organoids [2]; Dose 2.00 uM, primary screen
  Z.CTG (standard z score): 0.092
  Dose.FC.CTG (log 2 fold change): 0.038
ISC-enriched organoids [2]; Dose 10.00 uM, primary screen
  Z.CTG (standard z score): 0.590
  Dose.FC.CTG (log 2 fold change): 0.247
ISC-enriched organoids [3]; Dose 0.08 uM
  Dose.FC.LYZ.S (log 2 fold change): 0.162
ISC-enriched organoids [3]; Dose 0.40 uM
  Dose.FC.LYZ.S (log 2 fold change): 0.050
ISC-enriched organoids [3]; Dose 2.00 uM
  Dose.FC.LYZ.S (log 2 fold change): 0.099
ISC-enriched organoids [3]; Dose 10.00 uM
  Dose.FC.LYZ.S (log 2 fold change): 0.143

## CC(/C=C/C(=O)NO)=C\[C@@H](C)C(=O)c1ccc(N(C)C)cc1 [Trichostatin A (TSA)]
ISC-enriched organoids [1]; dose 0.08 uM
  Z.LYZ.NS (standard z score): −0.554
  Dose.FC.LYZ.NS (log 2 fold change, basal lysozyme secretion): −0.064
ISC-enriched organoids [1]; dose 0.40 uM
  Z.LYZ.NS (standard z score): −1.697
  Dose.FC.LYZ.NS (log 2 fold change, basal lysozyme secretion): −0.195
ISC-enriched organoids [1]; dose 2.00 uM
  Z.LYZ.NS (standard z score): −1.334
  Dose.FC.LYZ.NS (log 2 fold change, basal lysozyme secretion): −0.153
ISC-enriched organoids [1]; dose 10.00 uM
  Z.LYZ.NS (standard z score): −1.298
  Dose.FC.LYZ.NS (log 2 fold change, basal lysozyme secretion): −0.149
ISC-enriched organoids [2]; dose 0.08 uM
  Z.CTG (standard z score): 0.457
  Dose.FC.CTG (log 2 fold change, ATP): 0.191
ISC-enriched organoids [2]; dose 0.40 uM
  Z.CTG (standard z score): −1.913
  Dose.FC.CTG (log 2 fold change, ATP): −0.801
ISC-enriched organoids [2]; dose 2.00 uM
  Z.CTG (standard z score): −2.159
  Dose.FC.CTG (log 2 fold change, ATP): −0.904
ISC-enriched organoids [2]; dose 10.00 uM
  Z.CTG (standard z score): −1.974
  Dose.FC.CTG (log 2 fold change, ATP): −0.826
ISC-enriched organoids [3]; dose 0.08 uM
  Dose.FC.LYZ.S (log 2 fold change, carbachol-induced lysozyme secretion): −0.124
ISC-enriched organoids [3]; dose 0.40 uM
  Dose.FC.LYZ.S (log 2 fold change, carbachol-induced lysozyme secretion): −0.254
ISC-enriched organoids [3]; dose 2.00 uM
  Dose.FC.LYZ.S (log 2 fold change, carbachol-induced lysozyme secretion): −0.210
ISC-enriched organoids [3]; dose 10.00 uM
  Dose.FC.LYZ.S (log 2 fold change, carbachol-induced lysozyme secretion): −0.202

## CC#CCn1c(N2CCC[C@@H](N)C2)nc2c1c(=O)n(Cc1nc(C)c3ccccc3n1)c(=O)n2C [Linagliptin]
ISC-enriched organoids [1]; [4]
  SSMD.LYZ.NS: 1.046
ISC-enriched organoids [1]; [5]
  SSMD.LYZ.NS: 0.306
ISC-enriched organoids [1]; [6]
  SSMD.LYZ.NS: 0.118
ISC-enriched organoids [1]; [7]
  SSMD.LYZ.NS: 0.671
ISC-enriched organoids [2]; Dose 0.08 uM, primary screen, standard z score
  Z.CTG: 0.389
ISC-enriched organoids [2]; Dose 0.40 uM, primary screen, standard z score
  Z.CTG: 0.499
ISC-enriched organoids [2]; Dose 2.00 uM, primary screen, standard z score
  Z.CTG: 0.054
ISC-enriched organoids [2]; Dose 10.00 uM, primary screen, standard z score
  Z.CTG: −0.027
ISC-enriched organoids [2]; [4]
  SSMD.CTG: 0.299
ISC-enriched organoids [2]; [5]
  SSMD.CTG: 0.612
ISC-enriched organoids [2]; [6]
  SSMD.CTG: 0.047
ISC-enriched organoids [2]; [7]
  SSMD.CTG: −0.025
ISC-enriched organoids [3]; [8]
  Z.LYZ.S: 0.905
  SSMD.LYZ.S: 0.797
ISC-enriched organoids [3]; [9]
  Z.LYZ.S: 0.305
  SSMD.LYZ.S: 0.215
ISC-enriched organoids [3]; [10]
  Z.LYZ.S: −0.204
  SSMD.LYZ.S: −0.126
ISC-enriched organoids [3]; [11]
  Z.LYZ.S: 0.322
  SSMD.LYZ.S: 0.374

## Nc1nc(N)c2nc(-c3cccc(O)c3)c(-c3cccc(O)c3)nc2n1 [TG100-115]
ISC-enriched organoids [1]; dose 0.08 uM
  Z.LYZ.NS (standard z score): 1.812
  Dose.FC.LYZ.NS (log 2 fold change, basal lysozyme secretion): 0.208
ISC-enriched organoids [1]; dose 0.40 uM
  Z.LYZ.NS (standard z score): −0.223
  Dose.FC.LYZ.NS (log 2 fold change, basal lysozyme secretion): −0.026
ISC-enriched organoids [1]; dose 2.00 uM
  Z.LYZ.NS (standard z score): 0.025
  Dose.FC.LYZ.NS (log 2 fold change, basal lysozyme secretion): 0.003
ISC-enriched organoids [1]; dose 10.00 uM
  Z.LYZ.NS (standard z score): −0.223
  Dose.FC.LYZ.NS (log 2 fold change, basal lysozyme secretion): −0.026
ISC-enriched organoids [2]; dose 0.08 uM
  Z.CTG (standard z score): −0.611
  Dose.FC.CTG (log 2 fold change, ATP): −0.256
ISC-enriched organoids [2]; dose 0.40 uM
  Z.CTG (standard z score): 0.158
  Dose.FC.CTG (log 2 fold change, ATP): 0.066
ISC-enriched organoids [2]; dose 2.00 uM
  Z.CTG (standard z score): −0.031
  Dose.FC.CTG (log 2 fold change, ATP): −0.013
ISC-enriched organoids [2]; dose 10.00 uM
  Z.CTG (standard z score): −0.277
  Dose.FC.CTG (log 2 fold change, ATP): −0.116
ISC-enriched organoids [3]; dose 0.08 uM
  Dose.FC.LYZ.S (log 2 fold change, carbachol-induced lysozyme secretion): 0.073
ISC-enriched organoids [3]; dose 0.40 uM
  Dose.FC.LYZ.S (log 2 fold change, carbachol-induced lysozyme secretion): 0.032
ISC-enriched organoids [3]; dose 2.00 uM
  Dose.FC.LYZ.S (log 2 fold change, carbachol-induced lysozyme secretion): −0.019
ISC-enriched organoids [3]; dose 10.00 uM
  Dose.FC.LYZ.S (log 2 fold change, carbachol-induced lysozyme secretion): −0.100
